Test results from paper PMC4965013, “Open Source Drug Discovery with the Malaria Box Compound Collection for Neglected Diseases and Beyond” (PLoS Pathogens, 2016).

Legend:
[1] = system: P. falciparum 3D7 trophozoites; assay: Metabolomic fingerprint profiling LC-MS; format: cell-based, Plasmodium falciparum; parameters: UDP-D-glucose / ADP-D-glucose: unit not given here; conditions: for Acetyllysine / N-acetyl-L-ornithine / N-carbamoyl-L-aspartate / NADPH / dAMP / dCMP / dTDP / dTMP / dTTP / dihydroorotate / orotate / DLH / DLS/SDL/SID / PD / PEE / PVNF / 3-phosphoglycerate / ADP-D-glucose / ATP / CDP / D-sedoheptulose-1/7-phosphate / FAD / GMP / NAD+ / NADP+ / Octoluse Bisphosphate / Pyroglutamic acid / UDP-D-glucose / UDP-D-glucuronate / UDP-N-acetyl-glucosamine / UDP / UMP / UTP / a-ketoglutarate / citrate/isocitrate / cytidine / dATP / dGMP/AMP / fumarate / glucose-1/6-phosphate / glycerate / guanine / guanosine / hypoxanthine / indole / inosine / nicotinate / ornithine / phosphoenolpyruvate / pyruvate / ribose-phosphate / sarcosine/alanine / sn-glycerol-3-phosphate / succinate/methylmalonic acid / uridine / xanthosine: S2 Table Metabolomics; for Acetyllysine: metabolite Acetyllysine; for N-acetyl-L-ornithine: metabolite N-acetyl-L-ornithine; for N-carbamoyl-L-aspartate: metabolite N-carbamoyl-L-aspartate; for NADPH: metabolite NADPH; for dAMP: metabolite dAMP; for dCMP: metabolite dCMP; for dTDP: metabolite dTDP; for dTMP: metabolite dTMP; for dTTP: metabolite dTTP; for dihydroorotate: metabolite dihydroorotate; for orotate: metabolite orotate; for DLH: peptide DLH; for DLS/SDL/SID: peptide DLS/SDL/SID; for PD: peptide PD; for PEE: peptide PEE; for PVNF: peptide PVNF; for 3-phosphoglycerate: metabolite 3-phosphoglycerate; for ADP-D-glucose: metabolite ADP-D-glucose; for ATP: metabolite ATP; for CDP: metabolite CDP; for CDP / D-sedoheptulose-1/7-phosphate / GMP / Octoluse Bisphosphate / UDP / UMP / UTP / citrate/isocitrate / dGMP/AMP / fumarate / glucose-1/6-phosphate / glycerate / guanine / guanosine / inosine / pyruvate / sarcosine/alanine / succinate/methylmalonic acid / uridine / xanthosine: change in metabolite level after compound treatment; for D-sedoheptulose-1/7-phosphate: metabolite D-sedoheptulose-1/7-phosphate; for FAD: metabolite FAD; for GMP: metabolite GMP; for NAD+: metabolite NAD+; for NADP+: metabolite NADP+; for Octoluse Bisphosphate: metabolite Octoluse Bisphosphate; for Pyroglutamic acid: metabolite Pyroglutamic acid; for UDP-D-glucose: metabolite UDP-D-glucose; for UDP-D-glucuronate: metabolite UDP-D-glucuronate; for UDP-N-acetyl-glucosamine: metabolite UDP-N-acetyl-glucosamine; for UDP: metabolite UDP; for UMP: metabolite UMP; for UTP: metabolite UTP; for a-ketoglutarate: metabolite a-ketoglutarate; for citrate/isocitrate: metabolite citrate/isocitrate; for cytidine: metabolite cytidine; for dATP: metabolite dATP; for dGMP/AMP: metabolite dGMP/AMP; for fumarate: metabolite fumarate; for glucose-1/6-phosphate: metabolite glucose-1/6-phosphate; for glycerate: metabolite glycerate; for guanine: metabolite guanine; for guanosine: metabolite guanosine; for hypoxanthine: metabolite hypoxanthine; for indole: metabolite indole; for inosine: metabolite inosine; for 2_3-Diphosphoglyceric acid / 4-phosphopantothenate / 6-phospho-D-gluconate / FMN / IMP / Pyrophosphate / Sedoheptoluse bisphosphate / cyclic-AMP / glutathione disulfide / lactate / myo-inositol: metabolite level change after treatment; for nicotinate: metabolite nicotinate; for ornithine: metabolite ornithine; for phosphoenolpyruvate: metabolite phosphoenolpyruvate; for pyruvate: metabolite pyruvate; for ribose-phosphate: metabolite ribose-phosphate; for sarcosine/alanine: metabolite sarcosine/alanine; for sn-glycerol-3-phosphate: metabolite sn-glycerol-3-phosphate; for succinate/methylmalonic acid: metabolite succinate/methylmalonic acid; for uridine: metabolite uridine; for xanthosine: metabolite xanthosine
P. falciparum = assay: EC50 listed in S2 Table Metabolomics (used to set the concentration tested); format: cell-based; conditions: Plasmodium falciparum; EC50 used for Factor_XEC50 in metabolomics; read-out: EC50_nM

SMILES: CSC1=NC(=Nc2c(C)cccc2C)C2(CCC(C(C)(C)C)CC2)N1c1ccc(Cl)cc1 (stereo not shown) [MMV666596]
- Acetyllysine [1]: 0.05532
- N-acetyl-L-ornithine [1]: 0.3033
- N-carbamoyl-L-aspartate [1]: 4.209
- NADPH [1]: 0.4611
- dAMP [1]: -1.695
- dCMP [1]: -0.02373
- dTDP [1]: -0.6033
- dTMP [1]: -0.6441
- dTTP [1]: -0.4211
- dihydroorotate [1]: 4.453
- orotate [1]: -0.2494
- DLH [1]: 0.07485
- DLS/SDL/SID [1]: 0.1058
- PD [1]: 0.3494
- PEE [1]: 0.3362
- PVNF [1]: -0.2122
- 3-phosphoglycerate [1]: 0.06499
- ADP-D-glucose [1]: 0.1455
- ATP [1]: -0.04037
- CDP [1]: -0.436
- D-sedoheptulose-1/7-phosphate [1]: -0.1476
- FAD [1]: 0.02917
- GMP [1]: -0.07998
- NAD+ [1]: -0.07608
- NADP+ [1]: 0.2106
- Octoluse Bisphosphate [1]: -0.01707
- Pyroglutamic acid [1]: -0.1892
- UDP-D-glucose [1]: -0.01772
- UDP-D-glucuronate [1]: -0.05432
- UDP-N-acetyl-glucosamine [1]: -0.1657
- UDP [1]: -0.847
- UMP [1]: -0.5062
- UTP [1]: -0.6788
- a-ketoglutarate [1]: -0.3441
- citrate/isocitrate [1]: -0.1956
- cytidine [1]: -0.05016
- dATP [1]: 0.3608
- dGMP/AMP [1]: -0.2908
- fumarate [1]: 0.4042
- glucose-1/6-phosphate [1]: -0.3631
- glycerate [1]: -0.704
- guanine [1]: -0.05943
- guanosine [1]: 0.2542
- hypoxanthine [1]: -0.3496
- indole [1]: -0.1947
- inosine [1]: -0.267
- 2_3-Diphosphoglyceric acid [1]: 0.06366
- 4-phosphopantothenate [1]: -0.3594
- 6-phospho-D-gluconate [1]: 0.1204
- FMN [1]: 0.0335
- IMP [1]: -0.08883
- Pyrophosphate [1]: 0.1408
- Sedoheptoluse bisphosphate [1]: 0.09241
- cyclic-AMP [1]: -0.008887
- glutathione disulfide [1]: 0.04205
- lactate [1]: -0.4137
- myo-inositol [1]: -0.699
- nicotinate [1]: -0.1654
- ornithine [1]: 0.2004
- phosphoenolpyruvate [1]: 0.0459
- pyruvate [1]: -0.8143
- ribose-phosphate [1]: 0.02121
- sarcosine/alanine [1]: -0.1953
- sn-glycerol-3-phosphate [1]: 0.3928
- succinate/methylmalonic acid [1]: 0.09915
- uridine [1]: -0.4544
- xanthosine [1]: -0.03694
- EC50 (P. falciparum): 135 nM

SMILES: CC1CCN(Cc2ccc(NC(=O)c3cc4ccc5cccnc5c4[nH]3)cc2)CC1 [MMV020549]
- Acetyllysine [1]: -2.641
- N-acetyl-L-ornithine [1]: -2.126
- N-carbamoyl-L-aspartate [1]: 2.423
- NADPH [1]: 1.7547
- dAMP [1]: 0.4295
- dCMP [1]: 0.8562
- dTDP [1]: 0.3381
- dTMP [1]: 0.4292
- dTTP [1]: 0.08993
- dihydroorotate [1]: 2.255
- orotate [1]: 1.187
- DLH [1]: -1.428
- DLS/SDL/SID [1]: -2.953
- PD [1]: -0.7061
- PEE [1]: -0.9939
- PVNF [1]: -1.512
- 3-phosphoglycerate [1]: -0.1099
- ADP-D-glucose [1]: 0.08948
- ATP [1]: -0.07943
- CDP [1]: 0.4826
- D-sedoheptulose-1/7-phosphate [1]: 0.04396
- FAD [1]: -0.01225
- GMP [1]: -0.01756
- NAD+ [1]: -0.1491
- NADP+ [1]: 0.1203
- Octoluse Bisphosphate [1]: -0.3788
- Pyroglutamic acid [1]: -0.1503
- UDP-D-glucose [1]: -0.0815
- UDP-D-glucuronate [1]: -0.1055
- UDP-N-acetyl-glucosamine [1]: -0.09535
- UDP [1]: 0.6579
- UMP [1]: 0.21
- UTP [1]: 0.1832
- a-ketoglutarate [1]: -0.128
- citrate/isocitrate [1]: -0.1069
- cytidine [1]: -0.1996
- dATP [1]: 0.1916
- dGMP/AMP [1]: 0.3048
- fumarate [1]: 0.06488
- glucose-1/6-phosphate [1]: -0.4724
- glycerate [1]: -0.06488
- guanine [1]: 0.773
- guanosine [1]: 1.397
- hypoxanthine [1]: -0.1958
- indole [1]: -0.3017
- inosine [1]: -0.6136
- 2_3-Diphosphoglyceric acid [1]: -0.02531
- 4-phosphopantothenate [1]: 0.1058
- 6-phospho-D-gluconate [1]: -0.03173
- FMN [1]: 0.1472
- IMP [1]: 0.1864
- Pyrophosphate [1]: 0.03595
- Sedoheptoluse bisphosphate [1]: 0.04232
- cyclic-AMP [1]: -0.09542
- glutathione disulfide [1]: -0.2786
- lactate [1]: -0.1188
- myo-inositol [1]: -0.1919
- nicotinate [1]: 0.02078
- ornithine [1]: 0.04846
- phosphoenolpyruvate [1]: -0.09349
- pyruvate [1]: -0.1796
- ribose-phosphate [1]: -0.1444
- sarcosine/alanine [1]: -0.25
- sn-glycerol-3-phosphate [1]: -0.2777
- succinate/methylmalonic acid [1]: -0.1252
- uridine [1]: 0.147
- xanthosine [1]: -0.8804
- EC50 (P. falciparum): 274 nM
